Laboratory results from the NIST ThermoML archive (doi:10.1021/je0341918).

Assay: molar heat capacity at constant pressure; xn = mol fraction of the nth substance listed
Conditions: 101.3 kPa, Liquid, Small sample (50 mg) DSC

OCCCCO [1,4-butanediol] + O
molar heat capacity at constant pressure [J/K/mol]
Conditions	x1 = 0.0218	x1 = 0.0478	x1 = 0.0789	x1 = 0.1175	x1 = 0.1665	x1 = 0.2305	x1 = 0.4441	x1 = 0.6426	x1 = 1
293.15 K	88.5	97.3	103.9	111.8	120.1	129	138.7	169.3	198.2
303.15 K	89.3	97.7	104.8	112.7	121.3	130.4	140.8	173.3	203.6
313.15 K	88.8	98.1	105.5	113.8	122.4	131.8	142.7	177.1	208.8
323.15 K	88.9	98.5	106.2	114.8	123.5	133.1	144.6	180.7	214
333.15 K	89.2	99.1	107.3	116	125	135.1	147.3	185.7	221.3
343.15 K	89.1	99.6	108.3	117.2	126.5	137	149.9	190.8	228.6
353.15 K	89.3	100.2	109.3	118.5	128.1	139.2	152.9	196.4	236.9
